Data as given in patent US10080779B2, “Method for increasing the expression of anti-microbial peptides by keratinocytes comprising administering a composition comprising IL-17, TNF-alpha and OSM” (Universite D'Angers, priority 2004, dated 2018).

Key:
[1] = test system: NHEK; experiment: Keratinocyte differentiation marker (KDM) mRNA in NHEK (RT-PCR); format: cell-based, human; conditions: 24 h; for mRNA expression of CK1, DSG1, DSC1, FLG, CLSP, LOR and FABPS: single cytokines 10 ng/ml
Protocol: (§1) Normal human epidermal keratinocytes (NHEK) were obtained as previously described, from surgical samples of healthy breast skin (Boniface et al, 2005). NHEK were cultured to 80% of confluence allowing the expression of a large panel of keratinocyte differentiation markers, and then starved for 24 h in Keratinocyte SFM containing 0.03 mM Ca^2+ (Invitrogen Life Technologies, Cergy Pontoise, France) before stimulation. Confluent differentiated cells were stimulated with or without recombinant IL-17A, OSM, TNFα, IL-22 and IL-1α alone at maximum effective concentrations (reported previously around 10 ng/ml (Boniface et al, 2005 and Boniface et al, 2007)) or in combination (R&D systems Europe, Lille, France) during 2 h to 72 h for mRNA quantification. RHE were generated on polycarbonate culture inserts, from surgical samples of paediatric foreskins as previously described (Guenou et al., 2009). RHE were stimulated with or without recombinant IL-17A, OSM, TNFα, IL-22 and IL-1α alone or in combination, with or without a Janus protein Tyrosine Kinases (JAKs) inhibitor 10 μM (Calbiochem, 420099), during 24 h for mRNA quantification or during 72 h for immunohistological analysis.
(§2) NHEK, RHE and murine skin total RNA were isolated using NucleoSpin® RNA II kit (Macherey-Nagel, Hoerdt, France) and reverse-transcribed with SuperScript® II Reverse Transcriptase (Invitrogen Life Technologies) according to the manufacturer's instructions. Quantitative real time PCR was carried out using the LightCycler-FastStart DNA Master SYBR® Green I kit on LightCycler 480 (Roche Diagnostics, Meylan, France). The reaction components were 1×DNA Master Mix, and 0.5 μM of HPLC purified sense and anti-sense oligonucleotides purchased from Eurogentec (Eurogentec France, Angers, France), designed using Primer3 software. The stability of the housekeeping gene expression has been assessed by using GeNorm algorithm. […] Thus samples were normalized to G3PDH housekeeping gene and reported according to the ΔΔCT method as RNA fold increase: 2^ΔΔCT=2^ΔCT sample−ΔCT reference.

[2] = test system: NHEK; experiment: Cytokine measurement by ELISA in NHEK culture supernatants; format: cell-based, human; conditions: 10 ng/ml, 96 h
Protocol: (§3) NHEK were obtained as previously described, from surgical samples of healthy breast skin (Boniface et al, 2005). NHEK were cultured to 80% of confluence and then starved for 24 h in Keratinocyte SFM without addition of growth factors before stimulation. Cells were stimulated with or without 10 ng/ml of recombinant IL-17A, OSM, TNFα, IL-22 and IL-1α alone or in combination (R&D systems Europe, Lille, France) during 24 h for mRNA quantification or 48 h to 96 h for protein quantification.
Levels of BD2, BD3 and CXCL8 were determined using Human ELISA development kit (Peprotech), and CXCL1 and CXCL5 with DuoSet reagents (R&D Systems Europe).

[3] = test system: normal human keratinocytes (NHEK); experiment: Cytokine cocktails on S100A7, hBD2/4, KRT10 mRNA in NHEK (RT-Q-PCR); format: cell-based; conditions: NHEK 24 hrs, 1 ng/ml each
Protocol: (§4) Quantitative real time PCR was carried out using the LightCycler-FastStart DNA Master^PLUS SYBR Green I kit (Roche, Mannheim, Germany). The reaction components were 1× FastStart DNA Master^PLUS SYBR Green I and 0.5 μM of forward and reverse primers for S100A7 (forward 5′-[…]-3′ (SEQ ID No: 9) and reverse 5′-[…]-3′ (SEQ ID No: 10)), S100A8 (Pattyn, Speleman et al. 2003), S100A9 (forward 5′-[…]-3′ (SEQ ID No: 11) and reverse 5′-[…]-3′ (SEQ ID No: 12)), hBD2/4 (forward 5′-[…]-3′ (SEQ ID No: 13) and reverse 5′-[…]-3′ (SEQ ID No: 14)), KRT10 (forward 5′-[…]-3′ (SEQ ID No: 15) and reverse 5′-[…]-3′ (SEQ ID No: 16)), and hydroxymethyl-bilane synthase (HMBS) as a housekeeping gene (Vandesompele, De Preter et al. 2002). After cDNA fluorescent quantification using propidium iodide, 250 ng, 25 ng and 2.5 ng of cDNA were added as PCR template in the LightCycler glass capillaries. The cycling conditions comprised a 10 min polymerase activation at 95° C. and 50 cycles at 95° C. for 10 s, 64° C. for 5 s and 72° C. for 18 s with a single fluorescence measurement. […] A mathematical model was used to determine the relative quantification of target genes compared to HMBS reference gene (Pfaffl 2001).
To that aim, confluent normal human keratinocytes (NHEK) were treated for 24 hrs with the indicated mix of cytokines (each cytokine at 1 ng/ml final concentration). Total RNA was extracted, reverse-transcribed and the expression of the selected genes was analyzed by real-time PCR as described.

[4] = test system: NHEK; experiment: cDNA macroarrays analysis of 36 cytokines on 154 genes in NHEK; format: cell-based, human; conditions: 10 ng/ml, 24 h
Protocol: The comparison of the effects of 36 different cytokines on the expression of 154 genes of potential interest for skin physiology was performed using home-made cDNA macroarrays analysis. After cytokine stimulation, total RNA was extracted using TRIzoI® Reagent (Invitrogen life Technologies) and conventional 33P-cDNA target synthesis and hybridization were performed (Boniface et al, 2007). Genes were considered regulated if expression levels differed more than 3-fold relative to untreated control and 3-fold relative to mean background noise.

[5] = test system: NHEK; experiment: S100A7 Western blotting in NHEK (Example 13); format: cell-based, human; conditions: 10 ng/ml, 96 h
Protocol: After 96 h of stimulation, NHEK lysis was performed as previously described (Boniface et al, 2005). After separation by SDS-PAGE, proteins were transferred to nitrocellulose membranes (Amersham pharmacia biotech) by electroblotting. S100A7 was detected with mouse anti-human S100A7 mAb (Imgenex, San Diego, Calif., USA) and sheep anti-mouse IgG peroxidase-conjugated polyclonal Ab (Amersham Biosciences). Bound Ab were detected by chemiluminescence (ECL Hyperfilm and ECL Plus Reagen, Amersham Biosciences Ltd).

[6] = test system: RHE; experiment: RHE histology and immunohistochemistry (Example 14); format: cell-based, human; conditions: single cytokines, 72 h
Protocol: as §1
RHE were washed and fixed with formaldehyde solution. Fixed tissues were dehydrated with increasing ethanol concentrations, embedded in paraffin and sections were carried out using a microtome (4 μm thickness). The sections were deparaffinised, washed and incubated with hydrogen peroxide. The sections were incubated with anti-CK10 (SantaCruz, SC-23877), anti-LOR (Eurogentec, PRB-145P), anti-FLG (SantaCruz, SC-66192), anti-IVL (Biomedical Technologies, BT-601), anti-S100A7 (Clinisciences, IMG-409A) and then detected using a biotin-conjugated secondary antibody (Vector, RTU vectastain universal quick kit, PK-7800). After peroxidase-conjugated streptavidine (Vector, RTU vectastain universal quick kit, PK-7800) and peroxidase substrate addition (Dako, Substrat hyper-sensible AEC+), nuclei were counter-stained using a solution of hematoxylin. Sections were observed using a NIKON E400 microscope. The images were captured using a NIKON DS-Ril and processed with NIS-Elements 3.10 software.

[7] = test system: NHEK; experiment: RT-QPCR of antimicrobial peptide and chemokine genes in NHEK; format: cell-based, human; conditions: 10 ng/ml, 24 h
Protocol: as §3
NHEK and skin total RNA were isolated and reverse-transcribed as previously described (Boniface et al, 2005). Quantitative real time PCR was carried using the LightCycler-FastStart DNA Master SYBR® Green I kit on LightCycler 480 (Roche Diagnostics, Meylan, France). The reaction components were 1×DNA Master Mix, and 0.5 μM of HPLC purified sense and anti-sense oligonucleotides purchased from Eurogentec (Eurogentec France, Angers, France), designed using Primer3 software. Samples were normalized to three independent control housekeeping genes (G3PDH, RPL13A or ACTB for human samples and G3PDH, HMBS or B2m for mouse samples) and reported according to the ΔΔCT method as RNA fold increase: 2^ΔΔCT=2^ΔCT sample−ΔCT eference. For comparison of normal skin and psoriatic skin the REST 2008 software was used (Pfaffl et al., 2002).

[8] = test system: RHE; experiment: KDM mRNA in reconstituted human epidermis (RT-PCR); format: cell-based; conditions: 24 h
Protocol: as §1, §2

[9] = test system: STAT3; experiment: STAT3 phosphorylation in NHEK (Western blot); format: cell-based, human; conditions: NHEK stimulated 15 min with the cytokine
Protocol: For STAT3 and MAPK phosphorylation, NHEK were stimulated for 15 min in the presence of the indicated cytokine. Cells were lysed in SDS sample buffer (62.5 mM Tris-HCl pH 6.8, 2% SDS, 10% glycerol, 50 mM DTT, 0.1% bromophenol blue), sonicated and then submitted to SDS-PAGE and transferred onto an Immobilon membrane. The membranes were subsequently incubated overnight with the primary antibody, before being incubated with the appropriate peroxidase-labelled secondary antibody for 60 min. The reaction was visualized by chemiluminescence according to the manufacturer's instructions. Membranes were stripped in 0.1 M glycine pH 2.8 for 2 h and neutralized in 1 M Tris-HCl pH 7.6 before reblotting. For neutralizing experiments, NHEK were incubated with the appropriate antibodies for 2 h before stimulation.

[10] = test system: NHEK; experiment: RT-real time PCR of S100 mRNA in cytokine-stimulated NHEK; format: cell-based, human; conditions: IL-31
Protocol: as §4

[11] = test system: NHEK; experiment: In vitro keratinocyte migration assay; format: cell-based, human; conditions: mitomycin-treated wounded NHEK; OSM 10 ng/ml, IL-31 100 ng/ml
Protocol: Keratinocytes were cultured in wells pre-coated with type I collagen (200 μg/ml, Institut Jacques Boy, Reims, France) until they reached 80% confluency. Cells were starved for 48 h in Keratinocyte SFM and then treated with 10 μg/ml of mitomycin C (Sigma) for 2 h to prevent cell proliferation. A cell-free area was created by scraping the keratinocyte monolayer with a plastic pipette tip. Keratinocytes migration to the cell-free area was evaluated after 48 h of culture in the absence or presence of EGF or OSM. Using an inverted phase contrast microscope. The number of migrating keratinocytes was counted in 4 non-overlapping fields. Values represent the mean±SEM of cells per mm^2 beyond the frontiers of the in vitro injury. Student's t test was used for statistical analysis.

## IL-1α: recombinant cytokine IL-1α
[1]
  Number of KDM whose control mRNA expression is partially restored on removal of the cytokine from M5: 3 KDM
  mRNA expression of CK1, DSG1, DSC1, FLG, CLSP, LOR and FABPS: minor activities
[2]
  BD2 production, single cytokines: most potent inducers
  BD3 production: significant increase
  CXCL1, CXCL5, CXCL8 production, single cytokines: most effective
[3]
  Effect of depleting the cytokine from the mix on activity of the complete cocktail: did not significantly decrease the activity
[4]
  Number of genes (of 154) whose expression is modified with at least a three fold increase or decrease: at least five genes
[5]
  S100A7 expression in NHEK (western blotting): most potent inducer
[6]; RHE
  CK10, LOR and FLG expression (immunohistology): did not exhibit any activity
[6]
  RHE histology: does not modify RHE histology
[7]
  Number of the 21 chemokine and antimicrobial peptide genes upregulated: 19

## IL-22: recombinant cytokine IL-22
[1]
  Number of KDM whose control mRNA expression is partially restored on removal of the cytokine from M5: 4 KDM
  mRNA expression of CK1, DSG1, DSC1, FLG, CLSP, LOR and FABPS: downregulate mRNA expression
[2]
  BD3 production: significant increase
  CXCL1, CXCL5, CXCL8 production, single cytokines: discrete effect
[3]
  Effect of depleting the cytokine from the mix on activity of the complete cocktail: did not significantly decrease the activity
[4]
  Number of genes (of 154) whose expression is modified with at least a three fold increase or decrease: at least five genes
[8]
  Expression of KDM mRNA (CK10, CK1, LOR, FLG): most active cytokines
  S100A7 mRNA expression: strongly induced
[6]; RHE
  CK10, LOR and FLG expression (immunohistology): decreases expression of CK10, LOR and FLG
  IVL expression (immunohistology): strongly
  S100A7 expression (immunohistology): strongly induced
[6]
  RHE histology: significant keratinocyte hyperplasia
[7]
  Number of the 21 chemokine and antimicrobial peptide genes upregulated: 14

## LIF: leukemia inhibitory factor, cytokine of the IL-6 family
[9]
  STAT3 tyrosine phosphorylation (P-STAT3): no evidence for a STAT3 activation

B1: IL-31: cytokine whose receptor is a heterodimer of GPL and an OSMR subunit (protein, UniProt Q6EBC2 24-164, looked up)
Interleukin-31: SHTLPVRLLRPSDDVQKIVEELQSLSKMLLKDVEEEKGVLVSQNYTLPCLSPDAQPPNNIHSPAIRAYLKTIRQLDNKSVIDEIIEHLDKLIFQDAPETNISVPTDTHECKRFILTISQQFSECMDLALKSLTSGAQQATT
[9]
  STAT3 tyrosine phosphorylation (P-STAT3): recruits STAT3 signaling pathways
[10]
  Expression of psoriasin and calgranulin A and B (S100A8-9): induces expression
[11]
  Keratinocyte migration to the cell-free area: able to induce keratinocyte migration
